What was measured:
anesthetized normal rats = assay: In vivo measurement of salivation; design: species or system rat; conditions: anesthetized normal rats, dose-dependent between about 0.1 mg/kg and 1 mg/kg
Protocol: Suitable doses of test compounds or drug substances were administered using standard techniques to Long Evans Hooded rats weighing 225 to 350 grams, or CD-1 mice weighing 30 to 50 grams, which had been anesthetized using 2-3.5%% of isoflurane in oxygen. The animals were placed slightly head-down on an inclined, heated ramp. Rectal temperature was monitored using a thermocouple and the temperature of the heating pad was adjusted manually to maintain normal body temperature. Saliva was collected from the mouth by absorption onto pre-weighed slips of filter paper. The filter paper was changed periodically and the amount of saliva was measured by weighing the filter paper slips

[1] = system: pooled male human liver microsomes; assay: Metabolism by human liver microsomes; format: in vitro ADME; conditions: 6 hours incubation
Protocol: Compounds were incubated with pooled male human liver microsomes (BD Biosciences, #452172) and an NADP-regenerating system in a phosphate buffer (pH 7.4) for a total of 6 hours. Aliquots were removed every 2 hours, and 1% formic acid was added to halt the reaction. Samples were centrifuged, filtered through 0.2 micron spinfilter and the amount of each compound in the supernatants was quantitated using LC/MS/MS.

[2] = system: hippocampal inositol phosphate signaling pathway; assay: In vivo tissue inositol phosphate signaling pathway activation, hippocampus; design: species or system rat; conditions: normal rats, dose-dependent in the dose range 0.03 mg/kg to at least 3 mg/kg
Protocol: Experimental compounds or drug substances were administered using standard techniques to Long Evans Hooded rats weighing 225 to 350 grams, and which had been pretreated with a subcutaneous injection of lithium chloride at a suitable dose between 3 and 10 mmoles per kg. At suitable times the animals were briefly anesthetized using 5% isoflurane and euthanized by decapitation. The brains and submaxillary salivary glands were rapidly dissected out, and the hippocampuses were dissected from the brains. The dissected tissues were homogenized in a suitable volume of ice-cold phosphate-buffered saline containing 10 mM lithium chloride, pH7.4, using a tissue homogenizer, and used immediately or frozen in aliquots at −80degC. for future use. The concentration of inositol-1-phosphate was determined in the homogenates using the IPOne TR-FRET assay (CisBio cat no 621PAPEB), following the manufacturer's instruction

Structure (SMILES): Cc1noc(C2CCCNC2)n1 (racemic) [Compound 82, 3-Methyl-5-(piperidin-3-yl)-1,2,4-oxadiazole]
- salivation side effect (anesthetized normal rats): causes salivation
- extent of metabolism in human liver microsomes [1]: metabolized significantly less in human liver microsomes than in rat liver microsomes
- hippocampal IP response [2]: causes an increase in the hippocampal IP response
